{
  "source": "patent US20200038413A1",
  "about": "“METHODS OF TREATING PARKINSON'S DISEASE USING AMINOSTEROL COMPOSITIONS” (Enterin, Inc., priority 2018, published 2020)",
  "key": {"[1]": {"test_system": "patients with PD and constipation", "experiment": "Phase 2 trial Stage 2: daily oral dosing, bowel function / stool related indices", "type": "in vivo, human", "procedure": "Following successful screening, all subjects underwent a 14-day run-in period where the degree of constipation was assessed through a validated daily log (Zinsmeister et al. 2013) establishing baseline CSBMs/week. Subjects with an average of <3 CSBMs/week proceeded to dosing.\nIn Stage 2, 34 patients were evaluated.\nThe primary efficacy outcome variable was whether or not a subject was a “success” or “failure”. This is an endpoint based on subject diary entries for the “fixed dose” period prior to the endpoint assessment defined as average complete stool frequency increase by 1 or more over baseline, or 3 or more complete spontaneous stools/week. The subject was deemed a “success” if s/he met one or more of the criteria listed above, otherwise the subject was deemed a “failure”. The primary analysis was based on all subjects with a baseline assessment and an assessment at the end of the “fixed-dose” period and was a comparison of the proportion of successes with 0.10 (the null hypothesis corresponding to no treatment effect)."}, "[2]": {"experiment": "Phase 2 trial: pharmacokinetics of orally administered squalamine (ENT-01)", "type": "in vivo", "details": "human, based on PK of intravenously administered squalamine in prior clinical studies", "procedure": "Pharmakokinetics: PK data were collected on the 10 patients enrolled in Stage 1 and 10 patients enrolled in Stage 2 to determine the extent of systemic absorption. In Stage 1, PK data were obtained at each visit, pre-medication, at 1, 2, 4, 8 and 24 hours (Table 10). In Stage 2, PK was measured on days 1 and 6 of the randomization period pre-medication, at 1, 2, 4 and 8 hours (Table 11).\nThe mean Cmax, Tmax and T1/2 and AUC of the squalamine ion following squalamine (ENT-01) oral dosing for Stage 1 patients. The PK analyses are only approximate, as the lower limit of the validated concentration range was 10 ng/ml; most of the measured concentrations fell below that value. The mean Cmax, Tmax and T1/2 and AUC of the squalamine ion following squalamine (ENT-01) oral dosing for Stage 2 patients. The PK analyses are only approximate, as the lower limit of the validated concentration range was 0.5 ng/ml."}, "[3]": {"test_system": "colon segments (propagating contractile clusters)", "experiment": "Ex vivo colon motility (PCCs), Swiss Webster, C57BL/6 and CD-1 mice", "design": "species or system mouse", "details": "for increase in colonic PCC velocity / colonic PCC velocity: intraluminal 10-30 μM; for colonic PCC velocity: mean±SEM", "procedure": "Ex vivo colon motility: For the ex vivo colonic motility experiments, the colon was excised and placed within an organ-bath perfusion chamber filled with warmed, oxygenated Krebs buffer or physiological saline (35° C., 95% O2, 5% CO2). The colon was flushed and cannulated at the oral and anal ends to a manifold and syringe to allow inflow of oxygenated Krebs buffer (or physiological saline) or Krebs and squalamine and to maintain intraluminal pressure. The height of the inflow tube at baseline measurements was parallel to the height of the colon in the organ bath (1.1 cm). Mechanical threshold defined an inflow pressure great enough to generate a contraction in under 30 sec (1.8 cm). Recordings in the first portion of the study were measured at a mechanical threshold causing a pressure differential of 2 hPa (cm H2O). Inflow was raised 2-3 hPa above baseline and outflow was raised a minimum of 0.2 hPa above inflow. Motor patterns were recorded using a Microsoft LifeCam 3000 web camera or a Logitech Quickcam Pro camera positioned 7-8 cm above the tissue. Videos were recorded during a 20-minute Krebs control and a 20-minute Krebs +squalamine period in which solutions were added to the inflow syringe.\nSpatiotemporal Maps: Video recordings were used to construct spatiotemporal maps (STmaps) using edge detection software. STmaps are presented as heat maps showing the oral to anal direction across the y-axis and time across the x-axis (FIGS. 9A-C). Color corresponds to the changing diameter of the colon during periods of relaxation (green-yellow) and contraction (red) as contractile motor patterns occurred. ENS-dependent PCCs were defined as broad bands directed from the oral to anal ends that spanned more than 50% of the colon length. Parameters of motor patterns including, velocity, amplitude, and frequency were measured using ImageJ and Matlab (Version 12) software.\nStatistical Analysis: Effects of squalamine on motility and IPAN excitability in WT and PD model mice were assessed in paired experiments following Krebs control and subsequent squalamine exposure. Unpaired comparisons were performed for experiments comparing PD control and PD model strains. Percent difference was calculated by (treatment-control)/control. Data are presented as mean±SEM. Ex vivo statistical comparisons were performed using paired or unpaired, two-tailed t-tests or 1-way ANOVA using Graphpad Prism software (Version 7.0). In vivo studies were analysed using 1-way and 2-way ANOVA. Statistical significance was determined when p <0.05."}, "[4]": {"test_system": "colon segments (propagating contractile clusters)", "experiment": "Ex vivo colon motility, A53T human α-synuclein overexpressing mice and WT littermates", "design": "species or system mouse"}, "WT and A53T mice": {"test_system": "WT and A53T mice", "experiment": "In vivo fecal pellet output test", "design": "species or system mouse", "details": "for FPO in the first 15 min: Day 5 vs Day 0", "procedure": "In vivo fecal pellet output: Mice were subjected to the FPO test 1 day prior to the start of dosing with squalamine or vehicle (sterile water) (day 0). Mice were fasted for one hour and then given access to food one hour before FPO testing. On days 1-5 mice were fasted for one hour prior to oral gavage with vehicle or 20, 40, 80, or 120mg/kg squalamine. Oral gavage occurred between 10:00 to 11:00 am daily. On day 5, the FPO test was performed 1 hour after the final dose was administered. Total number of stool pellets produced in the first 15 min and over a 60 min period was measured in each group. Stool water content was measured by comparing wet and dry weights of the stool."}, "[5]": {"experiment": "Preclinical oral studies in rats", "type": "in vivo"}, "Solubility in water": {"experiment": "Solubility in water", "type": "physicochemical", "details": "pH<3.5 (the pH of gastric fluid)"}, "C. elegans model of PD": {"test_system": "C. elegans model of PD", "details": "cited from earlier work"}, "[6]": {"details": "C57BL/6 mice, vs Krebs control (P=0.27)"}},
  "data": [
    {"smiles": "CC(C)[C@@H](CC[C@@H](C)[C@H]1CC[C@H]2[C@@H]3[C@H](O)C[C@H]4C[C@@H](NCCCNCCCCN)CC[C@]4(C)[C@H]3CC[C@]12C)OS(=O)(=O)O", "note": "(single isomer, unassigned) [squalamine (ENT-01), squalamine]", "values": [
      {"measurement": "CSBM", "setting": "[1]; Stage 2, wash-out, mean (SD), baseline 1.2 (0.90)", "result": "1.8 (1.19)"},
      {"measurement": "SBM", "setting": "[1]; Stage 2, wash-out, mean (SD), baseline 2.6 (1.45)", "result": "3.2 (1.80)"},
      {"measurement": "response rate (CSBM within 24 hours on at least 2 of 3 days)", "setting": "[1]; Stage 2 daily dosing, 75 mg", "result": 26, "unit": "%"},
      {"measurement": "decrease in use of rescue medication", "setting": "[1]; fixed dose vs baseline", "result": 83, "unit": "%"},
      {"measurement": "improvement in SBM", "setting": "[1]; fixed dose vs baseline", "result": 73, "unit": "%"},
      {"measurement": "improvement in consistency (Bristol stool scale)", "setting": "[1]; fixed dose vs baseline", "result": 52, "unit": "%"},
      {"measurement": "improvement in ease of passage", "setting": "[1]; fixed dose vs baseline", "result": 16, "unit": "%"},
      {"measurement": "oral bio-availability (estimated)", "setting": "[2]", "result": "less than 0.3%"},
      {"measurement": "increase in colonic PCC velocity", "setting": "[3]; C57BL/6 mice, vs Krebs control", "result": 38, "unit": "%"},
      {"measurement": "colonic PCC velocity", "setting": "[3]; C57BL/6 mice, Krebs control 1.31±0.10", "result": "1.80±0.20", "unit": "mm/s"},
      {"measurement": "increase in PCC amplitude", "setting": "[3]; [6]", "result": 1, "unit": "%"},
      {"measurement": "increase in PCC frequency", "setting": "[3]; [6]", "result": 51, "unit": "%"},
      {"measurement": "PCC frequency", "setting": "[3]; C57BL/6 mice, Krebs control 0.007±0.001", "result": "0.010 ±0.003", "unit": "Hz"},
      {"measurement": "PCC amplitude", "setting": "[3]; C57BL/6 mice, Krebs control 0.66±0.06", "result": "0.70±0.07", "unit": "cm"},
      {"measurement": "increase in colonic PCC velocity", "setting": "[3]; CD-1 mice, vs Krebs control", "result": 81, "unit": "%"},
      {"measurement": "colonic PCC velocity", "setting": "[3]; CD-1 mice, Krebs control 0.96±0.1", "result": "1.74±0.1", "unit": "mm/s"},
      {"measurement": "increase in PCC frequency", "setting": "[3]; CD-1 mice, vs Krebs control (P=0.06)", "result": 63, "unit": "%"},
      {"measurement": "increase in PCC amplitude", "setting": "[3]; CD-1 mice, vs Krebs control (P=0.56)", "result": 12, "unit": "%"},
      {"measurement": "PCC frequency", "setting": "[3]; CD-1 mice, Krebs control 0.0099±0.0014", "result": "0.0162±0.0026", "unit": "Hz"},
      {"measurement": "PCC amplitude", "setting": "[3]; CD-1 mice, Krebs control 0.64±0.19", "result": "0.71±0.19", "unit": "cm"},
      {"measurement": "increase in colonic PCC velocity", "setting": "[3]; Swiss Webster mice, 20 min, vs Krebs control", "result": 45, "unit": "%"},
      {"measurement": "colonic PCC velocity", "setting": "[3]; Swiss Webster mice, Krebs control 1.14±0.10", "result": "1.66±0.10", "unit": "mm/s"},
      {"measurement": "increase in PCC frequency", "setting": "[3]; Swiss Webster mice, vs Krebs control", "result": 35, "unit": "%"},
      {"measurement": "decrease in PCC amplitude", "setting": "[3]; Swiss Webster mice, vs Krebs control (P=0.65)", "result": 3, "unit": "%"},
      {"measurement": "PCC frequency", "setting": "[3]; Swiss Webster mice, Krebs control 0.009±0.001", "result": "0.012±0.001", "unit": "Hz"},
      {"measurement": "PCC amplitude", "setting": "[3]; Swiss Webster mice, Krebs control 0.62±0.05", "result": "0.61±0.05", "unit": "cm"},
      {"measurement": "PCC velocity", "setting": "[4]; A53T mice, baseline state, intraluminal 30 μM, without drug 1.2±0.2", "result": "2.3±0.4", "unit": "mm/s"},
      {"measurement": "PCC velocity", "setting": "[4]; A53T mice, colonic expansion (mechanical threshold), 30 μM, without drug 1.6±0.3", "result": "2.1±0.3", "unit": "mm/s"},
      {"measurement": "PCC velocity", "setting": "[4]; WT mice, baseline state, intraluminal 30 μM, without drug 1.7±0.3", "result": "2.8±0.4", "unit": "mm/s"},
      {"measurement": "PCC velocity", "setting": "[4]; WT mice, colonic expansion (mechanical threshold), 30 μM, without drug 3.0±0.7", "result": "2.4±0.3", "unit": "mm/s"},
      {"measurement": "FPO in the first 15 min", "setting": "WT and A53T mice; A53T mice, 20, 40 and 80 mg/kg oral gavage for 5 days", "result": "significantly increased"},
      {"measurement": "fecal water content", "setting": "WT and A53T mice; A53T mice, 80 and 120 mg/kg oral", "result": "significantly increased"},
      {"measurement": "fecal water content", "setting": "WT and A53T mice; WT mice, 80 mg/kg oral", "result": "significantly increased"},
      {"measurement": "FPO in the first 15 min", "setting": "WT and A53T mice; WT mice, 40 and 120 mg/kg oral gavage for 5 days", "result": "significantly increased"},
      {"measurement": "tolerability", "setting": "[5]; oral", "result": "well tolerated"},
      {"measurement": "oral bioavailability", "setting": "[5]; preclinical studies", "result": "about 0.1%"},
      {"measurement": "solubility in water", "setting": "Solubility in water", "result": "readily dissolves"},
      {"measurement": "muscle paralysis", "setting": "C. elegans model of PD; C. elegans model of PD (Perni et al. 2017)", "result": "complete reversal of muscle paralysis"},
      {"measurement": "formation of aggregates of αS", "setting": "C. elegans model of PD; C. elegans model of PD in vivo (Perni et al. 2017)", "result": "inhibit the formation of aggregates of αS"}
    ]}
  ]
}
